A short description of data set [1]: Metabolic stability in human liver S-9 fractions. Conditions: for Liver S-9 stability factor: % parent remaining after 30 min at 37 C divided by average % ranolazine remaining (57%), 10 μM, human liver S9 2 mg/mL.
Experimental: As a measure of metabolic stability the compounds of this invention were incubated with human liver S-9 microsomal fractions. After, 30 minutes at 37 C, the amount of parent drug remaining was determined using LC-mass spec. The response factors for each compound was determined by establishing a standard curve and using an internal standard during the analysis of the samples. […] The compounds of this invention were assayed as described in the protocol below and the percentage of parent remaining was divided by the average % of ranolazine remaining (57%) affording a metabolic stability factor.
The following reagents were used; Potassium phosphate, 0.5M pH 74. (incubation buffer), kept at room temperature; 0.05M MgCl2 kept at 4° C.; β-Nicotinamide adenine dinucleotide phosphate, tetrasodium salt, reduced form (NADPH), 0.02M solution in water (˜16.6 mg/mL) from Sigma Lot #79H7044 prepared on day of use.
Incubation mixtures were prepared as follows:
Combine all components with incubation buffer and re-pipette 200 μL/tube+25 μL of the compound being tested along with 25 μL of S-9.
After 5 min of pre-incubation at 37° C., at 0 and 30 min after starting the reaction, a 50 μl aliquot of the incubation mixture was removed and added to 100 μL of 9:1 acetonitrile: methanol containing the internal standard.
The mixture was centrifuged and a 100 μL aliquot of the supernatant was diluted in 1 mL of solvent C (0.1% Formic Acid in water). Then samples were analyzed for change between the ratio of compound to internal standard at time zero and 30 minutes by LC/MS (injected 10 μL).
Samples were analyzed for the starting compounds and potential metabolite/s by LC/MS using an internal standard on a Micromass platform mass spec with a Keystone Inc. BDS ODS-C18 column with a flow rate of 0.25 ml/min.
Data set [2] concerns mitochondrial fatty acid oxidation using palmitoyl carnitine as substrate. Put plainly: Palmitoyl carnitine oxidation in isolated rat heart mitochondria. The note with it: 15 min at 30° C. It counts as biochemical. The protocol:
Rat heart mitochodria were isolated by the method of Nedergard and Cannon (Methods in Enzymol. 55, 3, 1979).
The Palmitoyl carnitine oxidation was carried out in a total volume of 100 microliters containing the following agents: 110 mM KCl, 33 mM Tris buffer at pH 8, 2 mM KPi, 2 mM MgCl2, 0.1 mM EDTA, 0.1 mg/ml of defatted BSA, 0.5 mM malic acid, 3 mM ADP, 52 micrograms of mitochondrial protein, and 43 microM 1-C14 palmitoyl carnitine (Sp. Activity 60 mCi/mmole; 20 microCi/ml, using 5 microliters per assay). The compounds of this invention were added in a DMSO solution at the following concentrations: 100 microM, 30 microM, and 3 microM. In each assay, a DMSO control was used. After 15 min at 30° C., the enzymatic reaction was centrifuged (20,000 g for 1 min), and 70 microliters of the supernatant was added to an activated reverse phase silicic acid column (approximately 0.5 ml of silicic acid). The column was eluted with 2 ml of water, and 0.5 ml of the eluent was used for scintillation counting to determine the amount of C^14 trapped as C^14 bicarbonate ion. The data are presented as % activity of control.

Regarding `Cc1ccc(COCC(O)CN2CCN(CC(=O)Nc3c(C)cccc3C)CC2)cc1` (stereo not drawn) [Compound 22, N-(2,6-dimethylphenyl)-2-(4-{2-hydroxy-3-[(4-methylphenyl)methoxy]propyl}piperazinyl)acetamide], the “Liver S-9 stability factor” value in data set [1] came out at 0.61.

Take `Cc1cccc(C)c1NC(=O)CN1CCN(CC(O)COCc2ccc(C(F)(F)F)cc2)CC1` (stereo not drawn) [Compound 17, N-(2,6-dimethylphenyl)-2-[4-(2-hydroxy-3-{[4-(trifluoromethyl)phenyl]methoxy}propyl)piperazinyl]acetamide]: the “Liver S-9 stability factor” value in data set [1] worked out at 1.0.

For `Cc1cccc(C)c1NC(=O)CN1CCN(CC(O)COC(C)C)CC1` (stereo not drawn) [Compound 10], in data set [2] (100 μM compound), the “Mitochondrial fatty acid oxidation activity (% of control)” value is on record as 80%.

Take `Cc1cccc(C)c1NC(=O)CN1CCN(CC(O)COCc2ccc(-c3ccccc3)cc2)CC1` (stereo not drawn) [Compound 23, N-(2,6-dimethylphenyl)-2-(4-{2-hydroxy-3-[(4-phenylphenyl)methoxy]propyl}piperazinyl)acetamide]: the “Liver S-9 stability factor” value in data set [1] is 0.05.

Take `CCCCc1ccc(COCC(O)CN2CCN(CC(=O)Nc3c(C)cccc3C)CC2)cc1` (stereo not drawn) [Compound 24, N-(2,6-dimethylphenyl)-2-(4-{3-[(4-butylphenyl)methoxy]-2-hydroxypropyl}piperazinyl)acetamide]: in data set [1], the “Liver S-9 stability factor” value was 0.02.

As for `Cc1cccc(C)c1NC(=O)CN1CCN(CC(O)COC2CCCC2)CC1` (stereo not drawn) [Compound 12], the “Liver S-9 stability factor” value in data set [1] is reported as 1.48.

On to `COc1ccccc1OCC(O)CN1CCN(CC(=O)Nc2c(C)cccc2C)CC1` (racemic) [Ranolazine, (±)-N-(2,6-dimethylphenyl)-4-[2-hydroxy-3-(2-methoxyphenoxy)propyl]-1-piperazineacetamide, reference compound], for which the “Mitochondrial fatty acid oxidation activity (% of control)” value in data set [2] (30 μM compound) stood at 98%; in data set [2] (100 μM compound) it was 63%. Also, in data set [1], the “Liver S-9 stability factor” value is 1.0. For the same compound, the “percentage of parent drug remaining at the 30 minute time point” value in data set [1] (human liver S-9, 30 minutes at 37 C, average of five experiments) is 57%.

Take `Cc1cccc(C)c1NC(=O)CN1CCN(CC(O)COCc2ccc3ccccc3c2)CC1` (stereo not drawn) [Compound 25, N-(2,6-dimethylphenyl)-2-{4-[2-hydroxy-3-(2-naphthylmethoxy)propyl]piperazinyl}acetamide]: in data set [1], the “Liver S-9 stability factor” value is on record as 0.01.

As for `Cc1cccc(C)c1NC(=O)CN1CCN(CC(O)COC2CCCCC2)CC1` (stereo not drawn) [Compound 13], the “Liver S-9 stability factor” value in data set [1] stood at 1.20.

The values are drawn from patent publication US6451798B2, “Substituted alkyl piperazine derivatives” (CV Therapeutics, Inc., priority 2000, dated 2002).
